Read-outs that look alike come from different tables or passages of the source.
Legend:
Assay type in all cases: cell-based
[1] = biological target: T1, pERK1/2 (Thr202/Tyr204), NCI-1H441 (KRAS G12V) (Homo sapiens, UniProt P01116, G12V); test: Assay of intracellular pERK1/2 (Thr202/Tyr204) phosphorylation in NCI-H441 cells (KRAS G12V)
T1 construct: pERK1/2 HTRF read-out
Procedure, shortened: (§1)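 HTRF detection of Thr202/Tyr204-phosphorylated ERK1/2 (665/615 nm ratio) in lysates from cells treated 2 days with serially 3-fold diluted compound.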

[2] = biological target: T2, pERK1/2 (Thr202/Tyr204), PANC-1 (KRAS G121D) (Homo sapiens, UniProt P01116, G12D); test: Assay of intracellular pERK1/2 (Thr202/Tyr204) phosphorylation in PANC-1 cells (KRAS G12D)
T2 construct: pERK1/2 HTRF read-out
T2 sequence (P01116 1-188 isoform P01116-2 G12D): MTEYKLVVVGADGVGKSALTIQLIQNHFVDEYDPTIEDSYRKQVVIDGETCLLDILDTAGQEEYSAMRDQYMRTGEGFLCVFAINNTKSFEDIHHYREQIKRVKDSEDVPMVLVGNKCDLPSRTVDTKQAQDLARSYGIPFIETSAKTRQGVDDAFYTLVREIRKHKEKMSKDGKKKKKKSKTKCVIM
Procedure, shortened: as §1

[3] = biological target: T3, pERK1/2 (Thr202/Tyr204), NCI-1H358 (KRAS G12C) (Homo sapiens, UniProt P01116, G12C); test: Assay of intracellular pERK1/2 (Thr202/Tyr204) phosphorylation in NCI-H358 cells (KRAS G12C)
T3 construct: pERK1/2 HTRF read-out
T3 sequence (P01116 1-188 isoform P01116-2 G12C): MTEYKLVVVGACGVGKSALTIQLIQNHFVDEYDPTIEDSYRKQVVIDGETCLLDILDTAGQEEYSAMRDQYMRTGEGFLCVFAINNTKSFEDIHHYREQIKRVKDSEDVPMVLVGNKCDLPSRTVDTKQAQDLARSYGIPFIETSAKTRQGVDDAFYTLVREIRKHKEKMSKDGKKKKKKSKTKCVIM
Procedure, shortened: as §1

[4] = pERK1/2, 2 days, read-out: NCI-H441 (KRAS G12V) IC50
[5] = pERK1/2, 2 days, read-out: PANC-1 (KRAS G12D) IC50
[6] = pERK1/2, 2 days, read-out: NCI-H358 (KRAS G12C) IC50

T1 sequence (P01116 1-188 isoform P01116-2 G12V): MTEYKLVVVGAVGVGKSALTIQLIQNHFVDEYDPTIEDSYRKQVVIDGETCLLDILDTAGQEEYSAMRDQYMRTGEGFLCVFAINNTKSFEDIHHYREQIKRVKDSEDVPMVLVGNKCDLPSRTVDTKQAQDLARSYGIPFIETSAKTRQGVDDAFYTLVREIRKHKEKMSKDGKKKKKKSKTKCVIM

| SMILES | IC50 [1, 4] | IC50 [2, 5] | IC50 [3, 6] | IC50 ([1]; read-out: NCI-H441 (KRAS G12V) IC50, pERK1/2, 2 days) | IC50 ([2]; read-out: PANC-1 (KRAS G12D) IC50, pERK1/2, 2 days) | IC50 ([3]; read-out: NCI-H358 (KRAS G12C) IC50, pERK1/2, 2 days) |
| --- | --- | --- | --- | --- | --- | --- |
| Cc1cc(N)cc(-c2nc3c4c(nc(OC[C@@H]5CCCN5C5COC5)nc4c2F)N(C(C)c2cccnc2N)CCO3)c1C(F)(F)F (stereo partly drawn) [Compound 123] | 4 nM | > 100 nM | 2 nM |  |  |  |
| Cc1c(F)c(N)cc(-c2nc3c4c(nc(OC[C@@]56CCCN5C[C@@H](F)C6)nc4c2F)N(C(C)c2cccnc2N)CCO3)c1C(F)(F)F (stereo partly drawn) [Compound 165] | 3 nM | 47 nM | 1 nM |  |  |  |
| CC(c1cccnc1N)N1CCOc2nc(-c3cc(O)cc4ccc(F)c(F)c34)c(F)c3nc(OC[C@@H]4CC(F)(F)CN4C)nc1c23 (stereo partly drawn) [Compound 46] | 5 nM | 287 nM | 4 nM |  |  |  |
| [2H]C1([2H])CC[C@@]2(C([2H])([2H])Oc3nc4c5c(nc(-c6cc(N)c(F)c(C)c6C(F)(F)F)c(F)c5n3)OCCN4[C@@H](C)c3cccnc3N)C[C@@H](F)CN12 (single isomer, unassigned) [Compound 125, 3-((R or S)-1-(5-(5-amino-4-fluoro-3-methyl-2-(trifluoromehtyl)phenyl)-4-fluoro-2-(((2R,7aS)-2-fluorotetrahydro-1H-pyrrolizin-7a(5H)-yl-5,5-d2)methoxy-d2)-8,9-dihydro-10H-7-oxa-1,3,6,10-tetraazacyclohepta[de]naphthalen-10-yl)ethyl)pyridin-2-amine] | 40 nM | 57 nM | 12 nM |  |  |  |
| Cc1cc(N)cc(-c2nc3c4c(nc(OC[C@]56CCCN5[C@@H](CO)CC6)nc4c2F)N([C@H](C)c2cccnc2N)CCO3)c1C(F)(F)F (single isomer, unassigned) [Compound 100, ((3R,7aR)-7a-(((5-(5-amino-3-methyl-2-(trifluoromethyl)phenyl)-10-((R or S)-1-(2-aminopyridin-3-yl)ethyl)-4-fluoro-9,10-dihydro-8H-7-oxa-1,3,6,10-tetraazacyclohepta[de]naphthalen-2-yl)oxy)methyl)hexahydro-1H-pyrrrolizin-3-yl)methanol] | > 100 nM | > 100 nM | 93 nM |  |  |  |
| Cc1cc(N)cc(-c2nc3c4c(nc(OC[C@@]56CCCN5C[C@H](F)C6)nc4c2F)N(C(C)c2cccnn2)CCO3)c1C(F)(F)F (stereo partly drawn) [Compound 121] | 98 nM | > 100 nM | > 100 nM |  |  |  |
| Cc1ccc2[nH]ncc2c1-c1nc2c3c(nc(OC[C@@]45CCCN4C[C@H](F)C5)nc3c1F)N(C(C)c1cccnc1N)[C@@H](C)CO2 (stereo partly drawn) [Compound 318] | 7 nM | 37 nM | 1 nM |  |  |  |
| CC(c1cccnc1N)N1c2nc(OC[C@@]34CCCN3C[C@H](F)C4)nc3c(F)c(-c4c5ccccc5cc5[nH]ncc45)nc(c23)O[C@H]2CCC[C@@H]21 (stereo partly drawn) [Compound 398] | 472 nM | 264 nM | 212 nM |  |  |  |
| Cc1c(F)c(N)cc(-c2nc3c4c(nc(OC[C@@]56CCCN5C[C@H](F)C6)nc4c2F)N(C2(c4cccnc4N)CC2)CCO3)c1C(F)(F)F [Compound 187] | 44 nM | > 100 nM | 63 nM |  |  |  |
| Cc1c(F)c(N)cc(-c2nc3c4c(nc(OC[C@@]56CCCN5C[C@H](F)C6)nc4c2F)N(C(C)c2cccnc2N)CCO3)c1C(F)(F)F (single isomer, unassigned) [Compound 138, 3-((R or S)-1-(5-(5-amino-4-fluoro-3-methyl-2-(trifluoromethyl)phenyl)-4-fluoro-2-(((2R,7aS)-2-fluorotetrahydro-1H-pyrrolizin-7a(5H)-yl)methoxy)-8,9-dihydro-10H-7-oxa-1,3,6,10-tetraazacyclohepta[de]naphthalen-10-yl)ethyl)pyridin-2-amine] | 17 nM | 30 nM | 13 nM |  |  |  |
| CCNC(=O)Oc1cc(Cl)c(C2CC2)c(-c2nc3c4c(nc(OC[C@@]56CCCN5C[C@H](F)C6)nc4c2F)N(C(C)c2cccnc2N)[C@@H](C)CO3)c1 (stereo partly drawn) [Compound 293, (*)3-((9S)-10-(1-(2-aminopyridin-3-yl)ethyl)-4-fluoro-2-(((2R,7aS)-2-fluorotetrahydro-1H-pyrrolizin-7a(5H)-yl)methoxy)-9-methyl-9,10-dihydro-8H-7-oxa-1,3,6,10-tetraazacyclohepta[de]naphthalen-5-yl)-5-chloro-4-cyclopropylphenyl ethylcarbamate acetate] |  |  |  | 1 nM | 0.5 nM | 1 nM |
| Cc1cc(N)cc(-c2nc3c4c(nc(OC[C@@H]5C[C@@H](F)CN5C)nc4c2F)N(C(C)c2cccnc2N)CCO3)c1C(F)(F)F (stereo partly drawn) [Compound 73] | 2 nM | 31 nM | 0.9 nM |  |  |  |
| [2H]C([2H])([2H])N1CCC[C@H]1COc1nc2c3c(nc(-c4cc(N)cc(C)c4C(F)(F)F)c(F)c3n1)OCCN2C(C)c1cccnc1N (single isomer, unassigned) [Compound 96, 3-((R or S)-1-(5-(5-amino-3-methyl-2-(trifluoromethyl)phenyl)-4-fluoro-2-(((S)-1-(methyl-d3)pyrrolidin-2-yl)methoxy)-8,9-] | 57 nM | > 100 nM | 27 nM |  |  |  |
| CC(c1cccnc1N)N1CCOc2nc(-c3cc(O)cc4ccc(F)c(F)c34)c(F)c3nc(OC[C@H]4COCCN4)nc1c23 (stereo partly drawn) [Compound 12] | 192 nM | > 1000 nM | 54 nM |  |  |  |

More lines, in order of falling IC50 [1, 4], values ahead:

| IC50 [1, 4] | IC50 [2, 5] | IC50 [3, 6] | SMILES | IC50 ([1]; read-out: NCI-H441 (KRAS G12V) IC50, pERK1/2, 2 days) | IC50 ([2]; read-out: PANC-1 (KRAS G12D) IC50, pERK1/2, 2 days) | IC50 ([3]; read-out: NCI-H358 (KRAS G12C) IC50, pERK1/2, 2 days) |
| --- | --- | --- | --- | --- | --- | --- |
| 2 nM | 11 nM | 0.4 nM | Cc1c(F)c(N)cc(-c2nc3c4c(nc(OC[C@@H]5CCCN5C)nc4c2F)N(C(C)c2cccnc2N)CCO3)c1C(F)(F)F (single isomer, unassigned) [Compound 85, 3-((R or S)-1-(5-(5-amino-4-fluoro-3-methyl-2-(trifluoromethyl)phenyl)-4-fluoro-2-(((S)-1-methylpyrrolidin-2-yl)methoxy)-8,9-dihydro-10H-7-oxa-1,3,6,10-tetraazacyclohepta[de]naphthalen-10-yl)ethyl)pyridin-2-amine] |  |  |  |
| 2 nM | 113 nM | 1 nM | CC(c1cccnc1N)N1CCOc2nc(-c3cc(O)cc4ccc(F)c(F)c34)c(F)c3nc(OC[C@@H]4CCN4CC(F)F)nc1c23 (stereo partly drawn) [Compound 8] |  |  |  |
| 2 nM | 23 nM | 0.6 nM | CC(c1cccnc1N)N1CCOc2nc(-c3cc(N)cc(Cl)c3C(F)(F)F)c(F)c3nc(OC[C@@H]4CCCN4C)nc1c23 (stereo partly drawn) [Compound 64] |  |  |  |
| 1 nM | 1 nM | 0.2 nM | Cc1c(F)c(N)cc(-c2nc3c4c(nc(OC[C@@]56CCCN5C[C@H](F)C6)nc4c2F)N([C@H](C)c2cc(F)cnc2N)[C@@H](C)CO3)c1C(F)(F)F [Compound 365] |  |  |  |
| 1 nM | 6 nM | 1 nM | CC(c1cccnc1N)N1c2nc(OC[C@@]34CCCN3C[C@H](F)C4)nc3c(F)c(-c4c(F)cc(F)c5sc(N)nc45)nc(c23)OC[C@@H]1C (stereo partly drawn) [Compound 333] |  |  |  |
| 0.8 nM | 6 nM | 0.5 nM | Cc1nc(N)cc(-c2nc3c4c(nc(OC[C@@]56CCCN5C[C@H](F)C6)nc4c2F)N(C(C)c2cccnc2N)[C@@H](C)CO3)c1C(F)(F)F (stereo partly drawn) [Compound 311] |  |  |  |
| 0.7 nM | 19 nM | 0.5 nM | Cc1cc(N)cc(-c2nc3c4c(nc(OC[C@@H]5C[C@@H](F)CN5C)nc4c2F)N(C(C)c2cccnc2N)CCO3)c1C(F)(F)F (single isomer, unassigned) [Compound 80, 3-((R or S)-1-(5-(5-amino-3-methyl-2-(trifluoromethyl)phenyl)-4-fluoro-2-(((2S,4R)-4-fluoro-1-methylpyrrolidin-2-yl)methoxy)-8,9-dihydro-10H-7-oxa-1,3,6,10-tetraazacyclohepta[de]naphthalen-10-yl)ethyl)pyridin-2-amine] |  |  |  |
| 0.6 nM | 6 nM | 0.3 nM | CCC(c1cccnc1N)N1CCOc2nc(-c3cc(N)c(F)c(C)c3C(F)(F)F)c(F)c3nc(OC[C@@]45CCCN4C[C@H](F)C5)nc1c23 (single isomer, unassigned) [Compound 212, 3-((R or S)-1-(5-(5-amino-4-fluoro-3-methyl-2-(trifluoromethyl)phenyl)-4-fluoro-2-(((2R,7aS)-2-fluorotetrahydro-1H-pyrrolizin-7a(5H)-yl)methoxy)-8,9-dihydro-10H-7-oxa-1,3,6,10-tetraazacyclohepta[de]naphthalen-10-yl)propyl)pyridin-2-amine] |  |  |  |
| 0.5 nM | 0.5 nM | 0.1 nM | CC(c1cccnc1N)N1CCOc2nc(-c3cc(N)c(F)c(Cl)c3C(F)(F)F)c(F)c3nc(OC[C@@]45CCCN4C/C(=C\F)C5)nc1c23 (stereo partly drawn) [Compound 229] |  |  |  |
| 0.4 nM | 2 nM | 0.3 nM | Cc1c(F)c(N)cc(-c2nc3c4c(nc(OC[C@@]56CCCN5C[C@]5(CC5(F)F)C6)nc4c2F)N(C(C)c2cccnc2N)CCO3)c1C(F)(F)F (single isomer, unassigned; diastereomer 2) [Compound 239, (*)3-(1-(5-(5-amino-4-fluoro-3-methyl-2-(trifluoromethyl)phenyl)-2-(((1R or 1S,7a′S)-2,2-difluorodihydro-1′H,3′H-spiro[cyclopropane-1,2′-pyrrolizin]-7a′(5′H)-yl)methoxy)-4-fluoro-8,9-dihydro-10H-7-oxa-1,3,6,10-tetraazacyclohepta[de]naphthalen-10-yl)ethyl)pyridin-2-amine (diastereomer 2)] |  |  |  |

Source: US20260356851A1, “TRICYCLIC COMPOUNDS AND USES THEREOF” (HUTCHMED LIMITED, priority 2023, published 2026)
